Laboratory results reported in patent US20120100989A1, “3-Aryl-4-(2-thienylmethylene)isoxazol-5(4H)-ones as Fungicides” (Bayer CropScience AG, priority 2010, published 2012).

Test: log P by HPLC on reversed-phase columns (C 18), EEC directive 79/831 Annex V.A8
Assay type: physicochemical
Conditions: for chromatographic logP: reversed-phase C18 HPLC column, preparation examples, acidic range pH 2.7, formic acid, read-out: log P (HCOOH)
Experimental: The log P values were measured according to EEC directive 79/831 Annex V.A8 by HPLC (High Performance Liquid Chromatography) on reversed-phase columns (C 18), using the method below:
The determination was carried out in the acidic range at pH 2.7 using the mobile phases 0.1% aqueous formic acid and acetonitrile; linear gradient from 10% acetonitrile to 95% acetonitrile.

Compound	log P (pH 2.7)	other results
O=C1CC(c2ccc(Cl)cc2Cl)=NO1 [3-(2,4-dichlorophenyl)isoxazol-5(4H)-one]		chromatographic logP (HPLC): 2.44
COc1cccc(C2=NOC(=O)C2)c1 [3-(3-methoxyphenyl)isoxazol-5(4H)-one]		chromatographic logP (HPLC): 4.03
CC(C)(C)c1ccc(C2=NOC(=O)C2)cc1 [3-(4-tert-butylphenyl)isoxazol-5(4H)-one]		chromatographic logP (HPLC): 3.1
O=C1ON=C(c2ccc(F)cc2)C1=Cc1cccs1 [I-2]	3.01	
O=C1ON=C(c2ccc(Cl)cc2Cl)/C1=C/c1cccs1 [I-4, 3-(2,4-dichlorophenyl)-4-(2-thienylmethylene)isoxazol-5(4H)-one]		chromatographic logP (HPLC): 3.72
O=C1ON=C(c2ccccc2Cl)C1=Cc1cccs1 [I-6]	3.17	
O=C1ON=C(c2ccc(Cl)c(Cl)c2)C1=Cc1cccs1 [I-7]	3.89	
Cc1ccc(C=C2C(=O)ON=C2c2ccccc2Cl)s1 [I-8]		log P (HPLC, acidic range pH 2.7, 0.1% aqueous formic acid and acetonitrile): 3.23
O=C1ON=C(c2ccccc2Cl)C1=Cc1ccc(Cl)s1 [I-9]	3.90	
CCc1sc(C=C2C(=O)ON=C2c2ccccc2Cl)cc1Br [I-10]	3.87	
O=C1ON=C(c2ccccc2Cl)C1=Cc1cc(Br)cs1 [I-11]	3.92	
CSCc1sc(C=C2C(=O)ON=C2c2ccccc2Cl)cc1Br [I-13]	4.29	
O=C1ON=C(c2ccccc2Cl)C1=Cc1cc(-c2ccccc2)cs1 [I-14]	4.36	
O=C1ON=C(c2ccccc2Cl)C1=Cc1ccc(-c2ccccc2)s1 [I-15]	4.42	
CSc1ccsc1C=C1C(=O)ON=C1c1ccccc1Cl [I-16]	3.59	
O=C1ON=C(c2ccccc2Cl)C1=Cc1cc(Br)c(Br)s1 [I-17]	4.64	
Cc1ccc(C=C2C(=O)ON=C2c2ccccc2Cl)s1 [I-19]	3.44	
COCc1ccsc1C=C1C(=O)ON=C1c1ccccc1Cl [I-20]	3.20	
O=C1ON=C(c2ccccc2C(F)(F)F)C1=Cc1cccs1 [I-21]	3.03	
O=C1ON=C(c2ccccc2F)C1=Cc1cccs1 [I-22]	2.95	
O=C1ON=C(c2cccc([N+](=O)[O-])c2)C1=Cc1cccs1 [I-24]	2.94	
Cc1ccc(C=C2C(=O)ON=C2c2ccc(Cl)cc2)s1 [I-25]	3.79	
Cc1ccc(/C=C2\C(=O)ON=C2c2ccc(C(C)(C)C)cc2)s1 [I-27, 3-(4-tert-butylphenyl)-4-(2-(5-methylthienyl)methylene)isoxazol-5(4H)-one]		chromatographic logP (HPLC): 4.7
O=C1ON=C(c2ccc(Cl)cc2)C1=Cc1cc(Br)cs1 [I-31]	4.19	

Compound	log P (pH 2.7)	other results
O=C1ON=C(c2cc(Cl)cc(Cl)c2)C1=Cc1cccs1 [I-34]	4.02	
O=C1ON=C(c2ccc(OC(F)(F)F)cc2)C1=Cc1ccc(Cl)s1 [I-36]	4.42	
COc1cccc(C2=NOC(=O)/C2=C\c2ccc(Cl)s2)c1 [I-37, 3-(3-methoxyphenyl)-4-(2-(5-chlorothienyl)methylene)isoxazol-5(4H)-one]		chromatographic logP (HPLC): 3.74
Cc1ccc(C2=NOC(=O)C2=Cc2sccc2Br)cc1 [I-38]	4.25	
COc1ccc(C2=NOC(=O)C2=Cc2sccc2Br)cc1 [I-39]	3.65	
CC(C)(C)c1ccc(C2=NOC(=O)C2=Cc2ccc(Cl)s2)cc1 [I-40]	5.08	
O=C1ON=C(c2ccc(F)cc2)C1=Cc1ccc(Cl)s1 [I-41]	3.72	
Cc1ccc(C2=NOC(=O)C2=Cc2ccc(Cl)s2)cc1 [I-42]	4.05	
O=C1ON=C(c2ccc(Cl)cc2)C1=Cc1cc(Br)c(Br)s1 [I-45]	4.88	
O=C1ON=C(c2ccc(Cl)cc2)C1=Cc1ccc(Cl)s1 [I-46]	4.17	
O=C1ON=C(c2ccc(F)cc2)C1=Cc1ccc(Br)s1 [I-47]	3.78	
Cc1ccc(C2=NOC(=O)C2=Cc2ccc(Br)s2)cc1 [I-48]	4.12	
O=C1ON=C(c2ccc(Cl)cc2)C1=Cc1ccc([N+](=O)[O-])s1 [I-51]	3.70	
COc1cccc(C2=NOC(=O)C2=Cc2cc(-c3ccccc3)cs2)c1 [I-52]	4.27	
O=C1ON=C(c2c(F)cccc2F)C1=Cc1cccs1 [I-59]	2.97	
O=C1ON=C(c2ccc(F)cc2)C1=Cc1sccc1Br [I-60]	3.74	
O=C1ON=C(c2ccc(F)cc2)C1=Cc1cc(Br)c(Br)s1 [I-63]	4.45	
O=C1ON=C(c2ccc(Cl)cc2)C1=Cc1cc(-c2ccccc2)cs1 [I-65]	4.70	
COc1cccc(C2=NOC(=O)C2=Cc2ccc(Br)s2)c1 [I-68]	3.79	
O=C1ON=C(c2c(F)cccc2F)C1=Cc1cc(-c2ccccc2)cs1 [I-70]	4.16	
O=C1ON=C(c2ccc(-c3ccccc3)cc2)C1=Cc1ccc(Br)s1 [I-75]	4.88	
O=C1ON=C(c2c(F)cccc2F)C1=Cc1ccc([N+](=O)[O-])s1 [I-76]	3.25	
Cc1ccc(C=C2C(=O)ON=C2c2c(F)cccc2F)s1 [I-78]	3.25	
Cc1cccc(C2=NOC(=O)C2=Cc2cccs2)c1 [I-80]	3.36	

More lines, main results first:

log P (pH 2.7)	Compound	other results
3.71	O=C1ON=C(c2ccccc2)C1=Cc1ccc(Br)s1 [I-1]	
3.40	O=C1ON=C(c2cccc(Cl)c2)C1=Cc1cccs1 [I-3]	
4.73	Cc1sc(C=C2C(=O)ON=C2c2ccccc2Cl)cc1Br [I-12]	
3.38	Cc1ccsc1C=C1C(=O)ON=C1c1ccccc1Cl [I-18]	
2.98	Cc1ccccc1C1=NOC(=O)C1=Cc1cccs1 [I-23]	
3.70	Cc1ccsc1C=C1C(=O)ON=C1c1ccc(Cl)cc1 [I-26]	
4.58	Cc1ccsc1C=C1C(=O)ON=C1c1ccc(C(C)(C)C)cc1 [I-28]	
3.64	O=C1ON=C(c2cc(Cl)ccc2Cl)C1=Cc1cccs1 [I-35]	
4.45	COc1ccc(C2=NOC(=O)C2=Cc2cc(Br)c(Br)s2)cc1 [I-44]	
3.77	COc1ccc(C2=NOC(=O)C2=Cc2ccc(Br)s2)cc1 [I-49]	
4.21	O=C1ON=C(c2ccc(Cl)cc2)C1=Cc1ccc(Br)s1 [I-50]	
4.52	CC(C)(C)c1ccc(C2=NOC(=O)C2=Cc2ccc([N+](=O)[O-])s2)cc1 [I-53]	
3.32	O=C1ON=C(c2ccc(F)cc2)C1=Cc1ccc([N+](=O)[O-])s1 [I-54]	
3.61	O=C1ON=C(c2cccc(C(F)(F)F)c2)C1=Cc1cccs1 [I-57]	
4.23	O=C1ON=C(c2ccc(Cl)cc2)C1=Cc1sccc1Br [I-61]	
4.23	COc1ccc(C2=NOC(=O)C2=Cc2cc(-c3ccccc3)cs2)cc1 [I-62]	
4.84	Cc1ccc(C2=NOC(=O)C2=Cc2cc(Br)c(Br)s2)cc1 [I-64]	
4.16	O=C1ON=C(c2ccc(-c3ccccc3)cc2)C1=Cc1cccs1 [I-66]	
4.27	O=C1ON=C(c2ccc(F)cc2)C1=Cc1cc(-c2ccccc2)cs1 [I-67]	
5.30	Cc1ccc(C2=NOC(=O)C2=Cc2cc(-c3ccccc3)cs2)cc1 [I-69]	
4.37	O=C1ON=C(c2ccc(C(F)(F)F)cc2)C1=Cc1ccc(Cl)s1 [I-71]	
3.73	O=C1ON=C(c2c(F)cccc2F)C1=Cc1ccc(Br)s1 [I-72]	
3.17	Cc1ccsc1C=C1C(=O)ON=C1c1c(F)cccc1F [I-73]	
3.69	O=C1ON=C(c2c(F)cccc2F)C1=Cc1cc(Br)cs1 [I-77]	
